ChEMBL document CHEMBL1135740, “Design, synthesis, and activity of a novel series of factor Xa inhibitors: optimization of arylamidine groups” (J Med Chem, 2002)

Key:
Serine protease 1 = target: T1, Serine protease 1 (Bos taurus, UniProt P00760); assay: Inhibitory constant against bovine trypsin for general specificity against serine proteases
T1 sequence (P00760 whole entry): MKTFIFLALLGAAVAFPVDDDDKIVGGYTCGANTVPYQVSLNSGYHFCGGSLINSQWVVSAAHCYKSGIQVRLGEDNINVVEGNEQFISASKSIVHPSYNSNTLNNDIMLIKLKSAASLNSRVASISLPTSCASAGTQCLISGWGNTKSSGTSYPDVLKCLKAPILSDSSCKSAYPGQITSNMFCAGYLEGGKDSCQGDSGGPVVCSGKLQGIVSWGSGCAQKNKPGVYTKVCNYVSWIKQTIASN

Prothrombin = Prothrombin (Homo sapiens, UniProt P00734); assay: Inhibitory constant against human coagulation factor II (thrombin) for selectivity within coagulation cascade
Coagulation factor X = Coagulation factor X (Homo sapiens, UniProt P00742); assay: Inhibitory constant against human coagulation factor Xa (fXa)
Chain of Coagulation factor X (P00742 41-179 limits assumed): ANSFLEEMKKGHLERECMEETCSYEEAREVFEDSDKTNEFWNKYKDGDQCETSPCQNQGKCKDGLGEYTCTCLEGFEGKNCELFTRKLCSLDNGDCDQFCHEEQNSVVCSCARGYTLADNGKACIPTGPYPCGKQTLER
Chain of Coagulation factor X (P00742 235-488 limits assumed): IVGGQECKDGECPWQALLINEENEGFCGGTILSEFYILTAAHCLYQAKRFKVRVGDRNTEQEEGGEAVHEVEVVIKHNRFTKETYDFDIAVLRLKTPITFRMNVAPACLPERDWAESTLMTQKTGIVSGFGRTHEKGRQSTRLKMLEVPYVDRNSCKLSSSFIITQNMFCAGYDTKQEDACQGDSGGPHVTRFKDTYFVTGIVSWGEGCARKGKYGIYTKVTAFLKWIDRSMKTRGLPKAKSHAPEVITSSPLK

Ki (Serine protease 1) [µM] | Ki (Prothrombin) [µM] | Ki (Coagulation factor X) [µM] | SMILES
> 5 | > 5 | > 5 | Cc1ccc(N(C)C)cc1Oc1nc(Oc2cccc(C(=N)N)c2)c(F)c(C)c1F
 | > 5 | > 5 | Cc1c(F)c(Oc2cccc(C(=N)N)c2)nc(Oc2cccc(C(=O)Nc3ccccc3)c2)c1F
 |  | 2.7 | COc1cc(Oc2nc(Oc3cccc(C(=O)N(C)C)c3)c(F)c(C)c2F)cc(C(=N)N)c1
> 5 | 3.8 | 1.8 | Cc1c(F)c(Oc2cccc(Nc3ccccc3)c2)nc(Oc2cccc(C(=N)N)c2)c1F
1.9 | 4.9 | 3.8 | Cc1c(F)c(Oc2cccc(NS(C)(=O)=O)c2)nc(Oc2cccc(C(=N)N)c2)c1F
> 5 |  | 0.7 | Cc1c(F)c(Oc2cccc(CCC(N)=O)c2)nc(Oc2cccc(C(=N)N)c2)c1F
> 5 | > 5 | 1.8 | Cc1c(F)c(Oc2cccc(OC(F)(F)F)c2)nc(Oc2cccc(C(=N)N)c2)c1F
> 5 | > 5 | > 5 | CCOC(=O)c1ccc(N(C)C)cc1Oc1nc(Oc2cccc(C(=N)N)c2)c(F)c(C)c1F
 |  | 1.3 | Cc1c(F)c(Oc2cccc(CO)c2)nc(Oc2cccc(C(=N)N)c2)c1F
 | > 5 | 1.4 | CC(=O)c1cccc(Oc2nc(Oc3cccc(C(=N)N)c3)c(F)c(C)c2F)c1
 |  | 5.8 | CC(=O)Nc1cccc(Oc2nc(Oc3cccc(C(=N)N)c3)c(F)c(C)c2F)c1
2.9 | 5.3 | 0.62 | Cc1c(F)c(Oc2cccc(OC(C)C)c2)nc(Oc2cccc(C(=N)N)c2)c1F
4.8 | > 5 | 0.125 | Cc1c(F)c(Oc2cccc(C(=N)N)c2)nc(Oc2cccc(-n3ccnc3)c2)c1F
0.75 | 0.12 | 0.012 | CN(C)c1cccc(Oc2cc(C(=O)O)cc(Oc3cc(C(=N)N)ccc3O)n2)c1
3.3 | > 5 | 2.2 | Cc1c(F)c(Oc2cccc(C(=N)N)c2)nc(Oc2cccc(C(O)C(=O)N(C)C)c2)c1F (stereo not drawn)
 |  | > 5 | COc1cc(C(=O)N(C)C)cc(Oc2nc(Oc3cccc(C(=N)N)c3)c(F)c(C)c2F)c1OC
> 5 | > 5 | 0.28 | Cc1c(F)c(Oc2cccc(CC(N)=O)c2)nc(Oc2cccc(C(=N)N)c2)c1F
3.8 | > 5 | 2.1 | Cc1c(F)c(Oc2cccc(C(=N)N)c2)nc(Oc2cccc(C(=O)C(C)C)c2)c1F
2.7 | > 5 | 0.53 | CCNc1cccc(Oc2nc(Oc3cccc(C(=N)N)c3)c(F)c(C)c2F)c1

Ki (Serine protease 1) [µM] | Ki (Prothrombin) [µM] | Ki (Coagulation factor X) [µM] | SMILES
 |  | > 5 | Cc1c(F)c(Oc2cccc(C(=N)N)c2)nc(Oc2cccc(C(=O)N3CCN(C)CC3)c2)c1F
0.73 | > 5 | 0.263 | CN(C)C(=O)c1cccc(Oc2cc(C(=O)O)cc(Oc3cccc(C(=N)N)c3)n2)c1
 |  | 3.2 | Cc1c(F)c(Oc2cccc(F)c2)nc(Oc2cccc(C(=N)N)c2)c1F
 |  | > 5 | Cc1ccc(C(=O)N(C)C)cc1Oc1nc(Oc2cccc(C(=N)N)c2)c(F)c(C)c1F
 |  | 0.72 | COc1ccc(C(=N)N)cc1Oc1nc(Oc2cccc(C(=O)N(C)C)c2)c(F)c(C)c1F
 |  | 2.4 | COc1c(Oc2nc(Oc3cccc(C(=N)N)c3)c(F)c(C)c2F)cccc1C(=O)N(C)C
> 5 | 2.2 | > 5 | COc1ccc(N(C)C)cc1Oc1nc(Oc2cccc(C(=N)N)c2)c(F)c(C)c1F
1.6 | > 5 | 0.16 | Cc1c(F)c(Oc2cccc(C(=N)N)c2)nc(Oc2cc(C(=O)N(C)C)cc(C(=O)N(C)C)c2)c1F
 |  | 5 | Cc1c(F)c(Oc2cccc(O)c2)nc(Oc2cccc(C(=N)N)c2)c1F
> 5 | > 5 | 3.3 | Cc1c(F)c(Oc2cccc(N)c2)nc(Oc2cccc(C(=N)N)c2)c1F
3.4 | > 5 | > 5 | Cc1c(F)c(Oc2cccc(C(=N)N)c2)nc(Oc2cc(C(=O)N(C)C)cc(O)c2O)c1F
0.4 | 0.3 | 0.064 | Cc1c(F)c(Oc2cccc(N(C)C)c2)nc(Oc2cc(C(=N)N)ccc2N)c1F
4.2 | > 5 | 0.46 | Cc1c(F)c(Oc2cccc(CC(=O)N(C)C)c2)nc(Oc2cccc(C(=N)N)c2)c1F
 |  | 0.0018 | Cc1c(F)c(Oc2cccc(C(=O)N(C)C)c2)nc(Oc2cc(C(=N)N)ccc2O)c1F
 |  | > 5 | Cc1c(F)c(Oc2cccc(C(=O)N(C)C)c2)nc(Oc2cc(C(=N)N)ccc2NS(=O)(=O)C(F)(F)F)c1F
5 | 0.95 | 0.32 | Cc1c(Oc2nc(Oc3cccc(C(=N)N)c3)c(F)c(C)c2F)cccc1N(C)C
3 | > 5 | 0.82 | Cc1c(F)c(Oc2cccc(C(=N)N)c2)nc(Oc2cccc(C(=O)N3CCCCC3)c2)c1F
> 5 | > 5 | > 5 | COc1cc(Oc2nc(Oc3cccc(C(=O)N(C)C)c3)c(F)c(C)c2F)c(O)c(C(=N)N)c1
0.16 | 0.65 | 0.013 | Cc1cn(-c2cccc(Oc3cc(C(=O)O)cc(Oc4cc(C(=N)N)ccc4O)n3)c2)cn1

Ki (Serine protease 1) [µM] | Ki (Prothrombin) [µM] | Ki (Coagulation factor X) [µM] | SMILES
 |  | 4.5 | Cc1c(F)c(Oc2cccc(C(=N)N)c2)nc(Oc2cccc(C(=O)N(C)C)c2O)c1F
0.75 | > 5 | 0.14 | COc1cc(Oc2nc(Oc3cccc(C(=N)N)c3)c(F)c(C)c2F)cc(C(=O)N(C)C)c1
> 5 | > 5 | > 5 | Cc1c(F)c(Oc2cccc(CC(=O)O)c2)nc(Oc2cccc(C(=N)N)c2)c1F
 |  | 1.2 | Cc1ccc(C(=N)N)cc1Oc1nc(Oc2cccc(N(C)C)c2)c(F)c(C)c1F
2.1 | 0.73 | 0.4 | CCN(CC)c1cccc(Oc2nc(Oc3cccc(C(=N)N)c3)c(F)c(C)c2F)c1
> 5 | > 5 | 4 | Cc1c(F)c(Oc2cccc(NC(N)=O)c2)nc(Oc2cccc(C(=N)N)c2)c1F
3.7 | > 5 | > 5 | Cc1c(F)c(Oc2cccc(C(=N)N)c2)nc(Oc2cc(C(=O)N(C)C)ccc2O)c1F
 |  | > 5 | COc1ccc(C(=N)N)c(OC)c1Oc1nc(Oc2cccc(N(C)C)c2)c(F)c(C)c1F
 |  | 0.69 | CCN(CC)C(=O)c1cccc(Oc2nc(Oc3cccc(C(=N)N)c3)c(F)c(C)c2F)c1
 | 1.8 | 1.35 | COc1cccc(Oc2nc(Oc3cccc(C(=N)N)c3)c(F)c(C)c2F)c1
 | > 5 | 1.7 | Cc1c(F)c(Oc2cccc(Cl)c2)nc(Oc2cccc(C(=N)N)c2)c1F
 | > 5 | 1.6 | Cc1c(F)c(Oc2cccc(C(=N)N)c2)nc(Oc2cccc(C(F)(F)F)c2)c1F
0.65 |  |  | Cn1ccnc1-c1cccc(Oc2cc(C(=O)O)cc(Oc3cc(C(=N)N)ccc3O)n2)c1
 |  | 2.4 | Cc1c(F)c(Oc2cccc(C(=N)N)c2)nc(Oc2cccc(C(=O)N(C)Cc3ccccc3)c2)c1F
 |  | 0.37 | Cc1c(F)c(Oc2cccc(C(=N)N)c2)nc(Oc2cccc(C(O)C(N)=O)c2)c1F (stereo not drawn)
 |  | 1.2 | CNC(=O)c1cccc(Oc2nc(Oc3cccc(C(=N)N)c3)c(F)c(C)c2F)c1
 |  | 2 | Cc1c(F)c(Oc2cccc(C(=N)N)c2)nc(Oc2ccc(O)c(C(=O)N(C)C)c2)c1F
 |  | 1.4 | COc1ccc(C(=N)N)cc1Oc1nc(Oc2cccc(N(C)C)c2)c(F)c(C)c1F
